Results: paper PMC10600239, “Selective MCL-1 inhibitor ABBV-467 is efficacious in tumor models but is associated with cardiac troponin increases in patients” (Communications Medicine, 2023)

Legend:
OCI-AML2 xenografts = assay: OCI-AML2 xenograft efficacy (tumor volume, body weight); conditions: for tumor response: for 20 days post-treatment
Method: All animal studies were conducted in accordance with the guidelines approved by the Institutional Animal Care and Use Committees of AbbVie. The research protocol was approved by In Vivo Pharmacology at AbbVie prior to study initiation but was not publicly registered or disclosed. Female C.B-17 SCID-beige mice (AMO-1, OPM-2, NCI-H929, and OCI-AML2 xenografts) and female NSG mice (MV4-11-Red.Fluc systemic) were purchased from Charles River Laboratories (Wilmington, MA). Animals were housed in a light cycle-controlled room with HEPA filtration at 22 °C. Animals had nesting and climbing cage topper as the primary environmental enrichment. Animals were inoculated subcutaneously in the right flank with 5 × 10^6 (AMO-1, OPM-2, NCI-H929, and OCI-AML2) or intravenous (IV) with 5 × 10^6 (MV4-11-Red.Fluc). The inoculation volume (0.2 mL) comprised a 50:50 mixture of cells in growth media and Matrigel (BD Biosciences) for subcutaneous injections and 100% phosphate-buffered saline for IV administration. […] Electronic calipers were used to measure the length and width of each tumor 2 to 3 times per week. Tumor volume was estimated by applying the following equation: volume = length × width^2/2. All groups remained blinded during measurements and dosing; only veterinary staff were aware of group identity. When tumors reached approximately 200 mm^3, mice were randomized by match and distributed into treatment and control groups. All xenograft trials were conducted using 5 to 10 mice per group, and all mice were ear tagged and monitored individually throughout the studies.
For combination studies, all compounds were administered within 30 min of each other.
The tumor growth delay (TGD) percentage was determined as the percentage increase of the median time period for the treatment group to reach an arbitrary tumor volume of 1000 mm^3 relative to the vehicle control group. […] A power analysis was conducted using historical data to determine the number of animals required to yield significance of 0.05 at a 30% difference. There were no animals excluded. Data from experiments in vivo were analyzed using the student’s t-test for TGI values and the Mann–Whitney U test for TGD using Excel and GraphPad Prism. Fisher’s exact test was used to probe significance of differences in response frequency.

H929 cells = assay: Caspase-3/7 activation and viability (DRAQ7) over time by Incucyte; type: cell-based, human
Method: Fig. 2 Apoptosis induced by ABBV-467 is mechanism based and induces cell death in MCL-1-dependent cell lines after short target engagement periods. H929 cells were treated with ABBV-467 in the presence or absence of the pan-caspase inhibitor z-VAD-fmk (50 µM) and the impact on caspase-3/7 activation (a), mitochondrial membrane potential (ΔΨm; b), and apoptosis (c) determined. Alternatively, BAK-deficient SKBR3 cells were treated with ABBV-467 for 24 h and the impact on cell viability compared with the parental cell line, determined by CellTiter-Glo. Inset depicts a western blot of BAK and BAX expression in SKBR3 cell variants using GAPDH as a loading control. Each of the 3 proteins were probed on separate blots (d). Data in (a–d) are presented as the mean ± standard error of the mean. H929 and AMO-1 cells were treated with ABBV-467 at the indicated concentrations and the impact on caspase-3/7 activation and viability (DRAQ7-positive) cells determined over time by Incucyte®. Data are presented as the mean ± standard deviation (e). H929 or AMO-1 cells were cultured in media containing 10% human serum and treated with ABBV-467 for the indicated contact times. Cells were subsequently washed 3 times with drug-free media and incubated in drug-free media for the remainder of the 24-h treatment period at 37 °C before cell viability was determined by CellTiter-Glo. Mean EC50 and EC90 values were determined from the resulting dose-response curves from at least 3 independent experiments, each assessed in quadruplicate, and depict the mean ± standard error of the mean. Presented ABBV-467 dose-response curves in H929 and AMO-1 cells were compiled from at least 3 independent experiments (f).

[1] = combined with venetoclax and 5-azacitidine

Cc1c(Cl)c2c(Cl)c(C)c1-c1c(-c3ccc(F)cc3)sc3ncnc(c13)O[C@@H](C(=O)O)Cc1cc(ccc1OCc1ccnc(-c3ccc(OC[C@H]4COCCO4)cc3)n1)OC[C@@H](CN1CCN(C)CC1)O2 [ABBV-467]
TGD (OCI-AML2 xenografts; combined with venetoclax): > 878%
TGI (OCI-AML2 xenografts; combined with venetoclax): 99%
TGD (OCI-AML2 xenografts; [1]): > 878%
TGI (OCI-AML2 xenografts; [1]): 99%
tumor response (OCI-AML2 xenografts; [1]): complete tumor regression in all tumors
tumor response (OCI-AML2 xenografts; combined with venetoclax): complete tumor regression in all tumors
animals remaining tumor free at 120 days post-inoculation (OCI-AML2 xenografts; doublet (with venetoclax)): 62.5%
sensitivity of OCI-AML2 tumors (OCI-AML2 xenografts; in combination with 5-azacitidine): resistant
sensitivity of OCI-AML2 tumors (OCI-AML2 xenografts; monotherapy): resistant
animals remaining tumor free at 120 days post-inoculation (OCI-AML2 xenografts; triplet (with venetoclax and 5-azacitidine)): 62.5%
Caspase-3/-7 Activation (H929 cells; ABBV-467 0.01 nM, 0 hours): 232.365
Caspase-3/-7 Activation (H929 cells; ABBV-467 0.01 nM, 1 hours): 224.632
Caspase-3/-7 Activation (H929 cells; ABBV-467 0.01 nM, 2 hours): 270.553
Caspase-3/-7 Activation (H929 cells; ABBV-467 0.01 nM, 3 hours): 259.728
Caspase-3/-7 Activation (H929 cells; ABBV-467 0.01 nM, 4 hours): 277.62
Caspase-3/-7 Activation (H929 cells; ABBV-467 0.01 nM, 5 hours): 289.07
Caspase-3/-7 Activation (H929 cells; ABBV-467 0.01 nM, 6 hours): 301.552
Caspase-3/-7 Activation (H929 cells; ABBV-467 0.01 nM, 7 hours): 311.821
Caspase-3/-7 Activation (H929 cells; ABBV-467 0.01 nM, 8 hours): 334.669
Caspase-3/-7 Activation (H929 cells; ABBV-467 0.01 nM, 9 hours): 348.392
Caspase-3/-7 Activation (H929 cells; ABBV-467 0.01 nM, 10 hours): 365.28
Caspase-3/-7 Activation (H929 cells; ABBV-467 0.01 nM, 11 hours): 391.805
Caspase-3/-7 Activation (H929 cells; ABBV-467 0.01 nM, 12 hours): 438.261
Caspase-3/-7 Activation (H929 cells; ABBV-467 0.01 nM, 13 hours): 454.339
Caspase-3/-7 Activation (H929 cells; ABBV-467 0.01 nM, 14 hours): 484.741
Caspase-3/-7 Activation (H929 cells; ABBV-467 0.1 nM, 0 hours): 225.588
Caspase-3/-7 Activation (H929 cells; ABBV-467 0.1 nM, 1 hours): 235.59
Caspase-3/-7 Activation (H929 cells; ABBV-467 0.1 nM, 2 hours): 274.692
Caspase-3/-7 Activation (H929 cells; ABBV-467 0.1 nM, 3 hours): 258.216
Caspase-3/-7 Activation (H929 cells; ABBV-467 0.1 nM, 4 hours): 255.874
Caspase-3/-7 Activation (H929 cells; ABBV-467 0.1 nM, 5 hours): 269.765
Caspase-3/-7 Activation (H929 cells; ABBV-467 0.1 nM, 6 hours): 277.457
Caspase-3/-7 Activation (H929 cells; ABBV-467 0.1 nM, 7 hours): 313.21
Caspase-3/-7 Activation (H929 cells; ABBV-467 0.1 nM, 8 hours): 322.526
Caspase-3/-7 Activation (H929 cells; ABBV-467 0.1 nM, 9 hours): 349.891
Caspase-3/-7 Activation (H929 cells; ABBV-467 0.1 nM, 10 hours): 382.789
Caspase-3/-7 Activation (H929 cells; ABBV-467 0.1 nM, 11 hours): 408.8
Caspase-3/-7 Activation (H929 cells; ABBV-467 0.1 nM, 12 hours): 435.203
Caspase-3/-7 Activation (H929 cells; ABBV-467 0.1 nM, 13 hours): 463.242
Caspase-3/-7 Activation (H929 cells; ABBV-467 0.1 nM, 14 hours): 524.814
Caspase-3/-7 Activation (H929 cells; ABBV-467 1 nM, 0 hours): 207.355
Caspase-3/-7 Activation (H929 cells; ABBV-467 1 nM, 1 hours): 234.094
Caspase-3/-7 Activation (H929 cells; ABBV-467 1 nM, 2 hours): 278.959
Caspase-3/-7 Activation (H929 cells; ABBV-467 1 nM, 3 hours): 292.278
Caspase-3/-7 Activation (H929 cells; ABBV-467 1 nM, 4 hours): 394.898
Caspase-3/-7 Activation (H929 cells; ABBV-467 1 nM, 5 hours): 570.705
Caspase-3/-7 Activation (H929 cells; ABBV-467 1 nM, 6 hours): 716.626
Caspase-3/-7 Activation (H929 cells; ABBV-467 1 nM, 7 hours): 887.617
Caspase-3/-7 Activation (H929 cells; ABBV-467 1 nM, 8 hours): 1099.54
Caspase-3/-7 Activation (H929 cells; ABBV-467 1 nM, 9 hours): 1287.07
Caspase-3/-7 Activation (H929 cells; ABBV-467 1 nM, 10 hours): 1419.14
Caspase-3/-7 Activation (H929 cells; ABBV-467 1 nM, 11 hours): 1610.17
Caspase-3/-7 Activation (H929 cells; ABBV-467 1 nM, 12 hours): 1722.67
Caspase-3/-7 Activation (H929 cells; ABBV-467 1 nM, 13 hours): 1826.71
Caspase-3/-7 Activation (H929 cells; ABBV-467 1 nM, 14 hours): 1859.69
Caspase-3/-7 Activation (H929 cells; ABBV-467 10 nM, 0 hours): 233.175
Caspase-3/-7 Activation (H929 cells; ABBV-467 10 nM, 1 hours): 264.944
Caspase-3/-7 Activation (H929 cells; ABBV-467 10 nM, 2 hours): 553.515
Caspase-3/-7 Activation (H929 cells; ABBV-467 10 nM, 3 hours): 945.842
Caspase-3/-7 Activation (H929 cells; ABBV-467 10 nM, 4 hours): 1332.17
Caspase-3/-7 Activation (H929 cells; ABBV-467 10 nM, 5 hours): 1650.46
Caspase-3/-7 Activation (H929 cells; ABBV-467 10 nM, 6 hours): 1813.36
Caspase-3/-7 Activation (H929 cells; ABBV-467 10 nM, 7 hours): 2014.88
Caspase-3/-7 Activation (H929 cells; ABBV-467 10 nM, 8 hours): 2144.69
Caspase-3/-7 Activation (H929 cells; ABBV-467 10 nM, 9 hours): 2203.21
Caspase-3/-7 Activation (H929 cells; ABBV-467 10 nM, 10 hours): 2258.19
Caspase-3/-7 Activation (H929 cells; ABBV-467 10 nM, 11 hours): 2283.58
Caspase-3/-7 Activation (H929 cells; ABBV-467 10 nM, 12 hours): 2310.22
Caspase-3/-7 Activation (H929 cells; ABBV-467 10 nM, 13 hours): 2302.82
Caspase-3/-7 Activation (H929 cells; ABBV-467 10 nM, 14 hours): 2302.28
Caspase-3/-7 Activation (H929 cells; ABBV-467 100 nM, 0 hours): 208.608
Caspase-3/-7 Activation (H929 cells; ABBV-467 100 nM, 1 hours): 451.845
Caspase-3/-7 Activation (H929 cells; ABBV-467 100 nM, 2 hours): 1550.74
Caspase-3/-7 Activation (H929 cells; ABBV-467 100 nM, 3 hours): 2054.45
Caspase-3/-7 Activation (H929 cells; ABBV-467 100 nM, 4 hours): 2191.43
Caspase-3/-7 Activation (H929 cells; ABBV-467 100 nM, 5 hours): 2357.93
Caspase-3/-7 Activation (H929 cells; ABBV-467 100 nM, 6 hours): 2394.62
Caspase-3/-7 Activation (H929 cells; ABBV-467 100 nM, 7 hours): 2491.07
Caspase-3/-7 Activation (H929 cells; ABBV-467 100 nM, 8 hours): 2431.58
Caspase-3/-7 Activation (H929 cells; ABBV-467 100 nM, 9 hours): 2418.59
Caspase-3/-7 Activation (H929 cells; ABBV-467 100 nM, 10 hours): 2357.71
Caspase-3/-7 Activation (H929 cells; ABBV-467 100 nM, 11 hours): 2329.52
Caspase-3/-7 Activation (H929 cells; ABBV-467 100 nM, 12 hours): 2294.27
Caspase-3/-7 Activation (H929 cells; ABBV-467 100 nM, 13 hours): 2277.8
Caspase-3/-7 Activation (H929 cells; ABBV-467 100 nM, 14 hours): 2211.71
Caspase-3/-7 Activation (H929 cells; ABBV-467 100 nM, 15 hours): 2210.67
